From patent US20050107289A1, “Anti-microbial peptides and compositions” (priority 2001, published 2005)
Counter-ions that a name gives are not always drawn. Like-named read-outs stand apart in the source and are kept apart here. Non-standard residues stand in square brackets, D forms with d. Residues, ends and D or L forms follow the SMILES beside them. NMeL = CN[C@@H](CC(C)C)C(=O)O

Experiments:
[1] = tested on: S. aureus (MRSA) ATCC 33591; assay type: cell-based, Staphylococcus aureus; details: for MRSA (in vitro activity): Table 9
Outline: (§1)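 First, peptide stocks in 5% DMSO/9% sucrose were quantified and diluted 2-fold over roughly 400-2 μg/ml. Next, overnight cultures were diluted 4000-fold to ~2.5×10^5 cfu/ml and combined with peptide. Minimum inhibitory concentrations followed NCCLS broth macro- or microdilution procedures.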

[2] = tested on: vancomycin-resistant Enterococus faecalis (VRE)(ATCC 51575); assay type: cell-based, Enterococcus faecalis; set-up: key to VRE (in vitro activity): peptide concentration in μg/ml (broth dilution assay); details: for VRE MIC: ATCC 51575; for VRE (in vitro activity): Table 9
Outline: as §1

[3] = tested on: Streptococcus pneumoniae (ATCC 6301); assay type: cell-based
Method: (§2) The antimicrobial activity of the peptides was determined using a broth dilution assay essentially as descried in the guidelines of the National Committee for […] (NCCLS) [National Committee for Clinical Laboratory Standards. Methods for dilution antimicrobial susceptibility tests for bacteria that grow aerobically. Fourth edition. Approved Standard (1997). Document M7-A4. […] The microdilution method has the advantages of requiring less amount of peptide for each assay and the possibility of multiple simultaneous inoculations and was used in most studies. Several of the strains of bacteria tested are further described in Table 3.
(§3) Preparation of peptide solutions. Stock peptide solutions were prepared in 5% DMSO in aq. sucrose (9%). Determination of peptide concentrations was done by quantitative HPLC analysis using known concentrations of internal standards and/or by measuring UV absorption of tryptophane-containing peptide solutions in H2O (λ=280 εTrp: 5690). Serial 2-fold dilutions were made in the above DMSO/aq. sucrose (9%) mixture with concentrations ranging approximately 400-2 μg/ml and aliquots were dispensed in test tubes (100 μl) for the macrodilution test or in microtiter plates (20 μl) for the microdilution assays.
(§4) Inoculum preparation. Overnight cultures of different microorganisms grown in suitable media were diluted 4000 times to an approximate inoculum size of 2.5×10^5 cfu/ml.
(§5) Macrodilution method. Macrodilution methods were performed using procedures similar to those described in the National Committee for Clinical Laboratory Standards. Methods for dilution antimicrobial susceptibility tests for bacteria that grow aerobically. Fourth edition. Approved Standard (1997). Document M7-A4. (NCCLS,Villanova, Pa., 1997). Two ml aliquots of the above inoculum were dispensed to test tubes containing different peptide solutions.
(§6) Microdilution method. Microdilution methods were performed using procedures similar to those described in the National Committee for Clinical Laboratory Standards. Methods for dilution antimicrobial susceptibility tests for bacteria that grow aerobically. Fourth edition. Approved Standard (1997). Document M7-A4.

[4] = tested on: Bacillus cereus ATCC 11778; assay type: cell-based
Method: as §2, §3, §4, §5, §6

[5] = tested on: murine red blood cells; assay: Red blood cell hemolysis; assay type: cell-based, mouse; set-up: RBC Hemolysis (HD50): unit not given here
Outline: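 Hemolysis read as A560 of supernatant, scaled between saline (0%) and 1% Triton X-100 (100%) controls; peptides were serially diluted onto 5% murine red cells in saline plus 10% FBS and incubated 30 min at 37° C.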

[6] = media a: anti-microbial media-3 (AM-3)
[7] = media b: cation adjusted Meuller Hinton broth (MHBII)
[8] = media c: Brain Heart Infusion (BHI)

Row | Molecule | MRSA MIC ([1]; ATCC 33591) [µg/mL] | VRE MIC [2] [µg/mL] | S. pneum. MIC [3] [µg/mL] | B. cerius MIC [4] [µg/mL] | RBC Hemolysis (HD50) [5] | MRSA (in vitro activity) [1, 7] | VRE (in vitro activity) [2, 8] | also measured
1 | CC(C)C[C@H]1C(=O)N[C@H](Cc2c[nH]c3ccccc23)C(=O)N(C)[C@@H](CC(C)C)C(=O)N[C@H](Cc2c[nH]c3ccccc23)C(=O)N[C@@H](CCCCN)C(=O)N[C@H](CCC(N)=O)C(=O)N[C@@H](CCCNC(=N)N)C(=O)N[C@H](Cc2c[nH]c3ccccc23)C(=O)N1C [SEQ ID NO:140, c[KQRW^MeLW^MeLW]] (cyclo(K[dQ]R[dW][NMeL][dW][NMeL][dW])) | 10 | 100 | 10 | 8 |  |  |  | 
2 | CC(C)C[C@H]1NC(=O)[C@H](CCC(=O)O)NC(=O)[C@@H](CCCCN)NC(=O)[C@H](Cc2c[nH]c3ccccc23)NC(=O)[C@@H](CC(C)C)NC(=O)[C@H](Cc2c[nH]c3ccccc23)NC(=O)[C@@H](CC(C)C)NC(=O)[C@H](Cc2c[nH]c3ccccc23)NC1=O [SEQ ID NO:143, [KELWLWLW]] (cyclo([dK]E[dL]W[dL]W[dL]W)) | 100 | 100 | 100 | > 140 |  |  |  | 
3 | CC(C)C[C@H]1NC(=O)[C@H](CCCCN)NC(=O)[C@@H](CCCNC(=N)N)NC(=O)[C@H](Cc2c[nH]c3ccccc23)NC(=O)[C@@H](CC(C)C)NC(=O)[C@H](Cc2c[nH]c3ccccc23)NC1=O [SEQ ID NO:141, [RKLWLW]] (cyclo([dR]K[dL]W[dL]W)) | 25 | 25 | 20 | 13 |  |  |  | 
4 | CC(C)C[C@H]1NC(=O)[C@H](Cc2c[nH]c3ccccc23)NC(=O)[C@@H](CCCNC(=N)N)NC(=O)[C@H](CCC(N)=O)NC(=O)[C@@H](CCCNC(=N)N)NC(=O)[C@H](Cc2c[nH]c3ccccc23)NC(=O)[C@@H](CC(C)C)NC(=O)[C@H](Cc2c[nH]c3ccccc23)NC1=O [SEQ ID NO:10, RQRWLWLW] (cyclo([dR]Q[dR]W[dL]W[dL]W)) | 10 | 10 | 4 | < 1 | 25 |  |  | S. aureus (MRSA) MIC ([1]; ATCC 33591): 18 µg/mL; MRSA (in vitro activity) [1, 6]: 10; VRE (in vitro activity) ([2]; media a: AM-3): 10
5 | CC(C)C[C@@H](NC(=O)[C@H](Cc1c[nH]c2ccccc12)NC(=O)[C@@H](CC(C)C)NC(=O)[C@H](Cc1c[nH]c2ccccc12)NC(=O)[C@@H](CCCCN)NC(=O)[C@H](CCCCN)NC(=O)[C@@H](CCCCN)NC(=O)[C@@H](N)Cc1c[nH]c2ccccc12)C(=O)O [SEQ ID NO:144, H-WKKKWLWL-OH] (H-W[dK]K[dK]W[dL]W[dL]-OH) | 60 | 100 | 100 | 340 |  |  |  | 
6 | CC(C)C[C@H]1NC(=O)[C@H](Cc2c[nH]c3ccccc23)NC(=O)[C@@H](CCCCN)NC(=O)[C@H](CCCCN)NC(=O)[C@@H](CCCCN)NC(=O)[C@H](Cc2c[nH]c3ccccc23)NC(=O)[C@@H](CC(C)C)NC(=O)[C@H](Cc2c[nH]c3ccccc23)NC1=O [[KKKWLWLW-HCl] (17), cyclo[-(D-Lys-Lys-D-Lys-(Trp-D-Leu)2-Trp-]] (cyclo([dK]K[dK]W[dL]W[dL]W)) |  |  |  |  | 75 | 6 | 6 | 
7 | CC(C)C[C@H]1NC(=O)[C@H](Cc2c[nH]c3ccccc23)NC(=O)[C@@H](Cc2ccccc2)NC(=O)[C@H](CCCCN)NC(=O)[C@@H](Cc2c[nH]c3ccccc23)NC(=O)[C@H](Cc2c[nH]cn2)NC(=O)[C@@H](CC(C)C)NC(=O)[C@H](Cc2c[nH]c3ccccc23)NC1=O [SEQ ID NO:99, [KFWLWLHW]] (cyclo(K[dF]W[dL]W[dL]H[dW])) |  |  |  |  | >25 |  |  | MRSA (in vitro activity) [1, 6]: 21; VRE (in vitro activity) ([2]; media a: AM-3): 21
8 | CC(C)C[C@H]1NC(=O)[C@H](Cc2c[nH]c3ccccc23)NC(=O)[C@@H](CCCCN)NC(=O)[C@H](CO)NC(=O)[C@@H](CO)NC(=O)[C@H](CCCCN)NC(=O)[C@@H](CC(C)C)NC(=O)[C@H](Cc2c[nH]c3ccccc23)NC1=O [SEQ ID NO:82, [KSSKWLWL]] (cyclo(K[dS]S[dK]W[dL]W[dL])) |  |  |  |  | >220 | 27 | 27 | 
9 | CC[C@@H](C)[C@H]1NC(=O)[C@H](C)NC(=O)[C@@H](Cc2c[nH]c3ccccc23)NC(=O)[C@H](C(C)C)NC(=O)[C@@H](CCCNC(=N)N)NC(=O)[C@H](CCCCN)NC1=O [SEQ ID NO:113, [KRVWAI]] (cyclo(K[dR]V[dW]A[dI])) |  |  |  |  | >200 | >200 | >200 | 
10 | CC(C)C[C@H]1NC(=O)[C@H](CCCCN)NC(=O)[C@@H](CO)NC(=O)[C@H](CCCCN)NC(=O)[C@@H](CC(C)C)NC(=O)[C@H](CCCNC(=N)N)NC(=O)[C@@H](CC(C)C)NC(=O)[C@H](CCCNC(=N)N)NC1=O [SEQ ID NO:106, [KSKLRLRL]] (cyclo(K[dL]R[dL]R[dL]K[dS])) |  |  |  |  | >400 |  |  | MRSA (in vitro activity) ([1]; media b: cation adjusted Meuller Hinton broth (MHBII), listed as [KSKLRLRL] (106)): >400; VRE (in vitro activity) ([2]; media c: Brain Heart Infusion (BHI), listed as [KSKLRLRL] (106)): >400
11 | CC(C)C[C@@H]1NC(=O)[C@@H](Cc2c[nH]c3ccccc23)NC(=O)[C@H](CCCCN)NC(=O)[C@@H](CO)NC(=O)[C@H](CCC(N)=O)NC(=O)[C@@H](CO)NC(=O)[C@H](CCCCN)NC(=O)[C@@H](Cc2c[nH]c3ccccc23)NC1=O [SEQ ID NO:92, [KSQSKWLW]] (cyclo(K[dS]Q[dS]K[dW]L[dW])) |  |  |  |  | 195 | 9 | 18 | 
12 | [KSOLWLWL] [SEQ ID NO:63] |  |  |  |  |  | 12 | 25 | RBC Hemolysis (HD50) ([5]; Table 9): 150
13 | CC(C)C[C@@H]1NC(=O)[C@@H](Cc2c[nH]c3ccccc23)NC(=O)[C@H](C(C)C)NC(=O)[C@@H](CCCNC(=N)N)NC(=O)[C@H](CCC(N)=O)NC(=O)[C@@H](CCCNC(=N)N)NC(=O)[C@H](Cc2c[nH]c3ccccc23)NC(=O)[C@@H](Cc2c[nH]c3ccccc23)NC1=O [SEQ ID NO:70, [QRVWLWWR]] (cyclo(Q[dR]V[dW]L[dW]W[dR])) |  |  |  |  | 30 | 12.5 |  | VRE (in vitro activity) ([2]; media b: MHBII): 6.3
14 | CC(C)C[C@@H]1NC(=O)[C@@H](Cc2c[nH]c3ccccc23)NC(=O)[C@H](CO)NC(=O)[C@@H](Cc2c[nH]c3ccccc23)NC(=O)[C@H](CCCCN)NC(=O)[C@@H](Cc2c[nH]c3ccccc23)NC(=O)[C@H](CCCCN)NC(=O)[C@@H](Cc2c[nH]c3ccccc23)NC1=O [SEQ ID NO:107, [KWKWSWLW]] (cyclo(K[dW]K[dW]S[dW]L[dW])) |  |  |  |  | 150 | 12 | 12 | 
15 | CC(C)C[C@@H]1NC(=O)[C@@H](Cc2c[nH]c3ccccc23)NC(=O)[C@H](Cc2ccccc2)NC(=O)[C@@H](CCCNC(=N)N)NC(=O)[C@H](CCC(N)=O)NC(=O)[C@@H](CCCNC(=N)N)NC(=O)[C@H](Cc2c[nH]c3ccccc23)NC(=O)[C@@H](Cc2c[nH]c3ccccc23)NC1=O [SEQ ID NO:68, [QRFWLWWR]] (cyclo(Q[dR]F[dW]L[dW]W[dR])) |  |  |  |  | 60 | 7.5 |  | VRE (in vitro activity) ([2]; media b: MHBII): 3.8
